Entries after “also recorded” stand apart in the source; their conditions may differ.
Tests used:
[1] = test system: mice (BALB/c); experiment: Elevated plus maze (EPM), anxiety-like behavior
[2] = test system: mice (BALB/c); experiment: Tail suspension test (TST), psilocybin loading dose then psilocybin+CBD+6 MB maintenance
[3] = psilocybin: loading dose 5 mg/kg alone, combination: given after the psilocybin loading dose

[3-(2-dimethylaminoethyl)-1H-indol-4-yl] dihydrogen phosphate [psilocybin]
percentage of time spent in open space (open arms of the EPM) ([1]; Day 14, two weeks after psilocybin loading dose 5 mg/kg, vs vehicle control, FIG. 2, 5 mg/kg): significantly increased; also recorded: more time
anxiety in mouse models [1, 3]: decreased
immobile posture time in TST ([2]; Day 15, psilocybin loading dose 5 mg/kg on Day 1, FIG. 4A): decreased
depression / depressive symptoms in mouse models [2, 3]: decreased
time spent immobile in TST ([2]; three weeks after 5 mg/kg loading dose of psilocybin (Day 22), loading dose only): significant decrease

Reference: patent publication US20240050454A1, “Compositions and Methods For Treating Neurological Conditions” (WeSana Health Inc., priority 2020, published 2024)
